The record followed here is patent US20100092459A1, “Protein Complex and Uses” (IMPERIAL INNOVATIONS LIMITED, priority 2006, published 2010).

Test [1] relates to FGF-2-mediated ERK phosphorylation in H510 cells. The test can be described thus: FGF-2-induced ERK phosphorylation in H510 cells, Western blot for biphospho-ERK. To be noted: for inhibition of FGF-2-mediated ERK phosphorylation: dose range of inhibitor 1 h, then FGF-2 0.1 ng/ml 5 min. The test is classed as cell-based. As for the experimental part:
(B) Representative blots from (A) were quantified by optical densitometry normalised for actin. (C) H69 cells transfected with empty (V) or a wt-PKCε-GFP expressing vector (a) were analysed for phospho-ERK, XIAP and Bcl-XL levels. (D) Baseline level cell death in V-H69 and ε-H69 cells growing in 10% FCS was determined by flow cytometry using Annexin V staining. (E) ε-H69 and V-H69 cells in SFM were treated with or without 0.1 μM etoposide (VP-16) and cell numbers determined 96 h later. Conditions were performed in quadruplicates and the average cell number±SEM represented as fold over untreated. (F) H510 cells in SFM were treated with or without 40 μM ε-TITAT, ΕTI-TITAT or TITAT for 4 h prior to stimulation for 5 min with or without FGF-2 (0.1 ng/ml). Cell lysates were Western-blotted for biphospho-ERK. […] (G) H510 cells transfected with PKCε or scrambled (sc) siRNA were stimulated with or without FGF-2. Lysates were analysed for PKCε levels and Erk phosphorylation. (A, C, F and G) Lamin B and actin immunodetection were used as loading controls.
(A) H510 cells were treated with or without a dose range of GF109203X (GF), Gö6976 (Go), Hispidin (His), BAPTA (BA) or Rottlerin (Rot) for 1 h prior to stimulation for 5 min in the presence or absence of either FGF-2 (0.1 ng/ml) or PDBu (400 nM). Cell lysates were analysed by SDS-PAGE/Western-blotting for biphospho-ERK. Lamin immunodetection was used as loading control. (B-top panel) Equal protein amounts from SCLC cell lines were compared for their PKC expression pattern. (B-bottom panel) SCLC cells in SFM were stimulated with and without FGF-2 for 5 min and cell lysates analysed by SDS-PAGE/WB for Erk phosphorylation. PKCε and PKCα levels (ODs from left panel) were compared to the ability to phosphorylate Erk in these SCLC cell lines. Results shown are representative of at least three independent experiments.
The PKCε translocation inhibitor ([…]) and PKCα translocation inhibitor ([…]) (Souroujon and Mochly-Rosen, 1998; Yedovitzky et al., 1997) were made cell-permeable by linkage to the HIV-derived TITAT sequence ([…]). H510 cells in RPMI were incubated for 4 h with 40 μM of either translocation inhibitor peptides or TITAT prior to further treatments. The activity of these inhibitors on ERK phosphorylation was assessed by Western Blotting.

Test [2] has as its system S6K2. In words: S6K2 immune complex kinase assay, FGF-2-stimulated H510 cells. The following applies: peptide 4 h. The test is classed as cell-based. As for the experimental part: (§1) Cell lysates were subjected to immunoprecipitation with a PKCε antibody prior to Western blotting (WB) for the molecules indicated. (A-lower panel) Total cell lysate was Western-blotted as indicated. (B and E) […] was immunoprecipitated from V-H69 and ε-H69 (B) or […] cells (E) following 4 h treatment with or without ε[…] and TITAT. Immunoprecipitates were subjected to in-vitro kinase assays with S6-peptide as a substrate and the results shown are average cpm±SEM from triplicates of a representative experiment. (C) The phosphorylation of the endogenous V-H69 and -H69 cells in SFM were washed three times in RPMI 1640, and 2×10^6 cell aliquots were incubated in this medium for 30 min at 37° C. Cells were treated in the presence or absence of 40 μM ([…] or TITAT peptide for 4 h as indicated, prior to performing an immune complex kinase assay for S6K1 or […] as described (Pardo et al., 2001). In separate experiments, HEK293Tet cells expressing tetracycline-inducible kinase active cytoplasmic forms of S6K1 or […] were incubated with or without tetracycline prior to lysis and immune complex kinase assay.

Test [3] has as its system S6K2. In words: S6K2 immune complex kinase assay (S6-peptide substrate), ε-H69 cells. It is filed as cell-based. To be noted: ε-H69 cells (PKCε over-expressing), 40 μM peptide 4 h. On the procedure:
as §1

The target of another test is S6K2 (human) (UniProt Q9UBS0).
A further test has as its system S6 protein. The test can be described thus: Phosphorylation of endogenous S6 protein in ε-H69 cells (phospho-S6 antibody). It is filed as cell-based. The following applies: ε-H69 cells in SFM. On the procedure:
S6 protein from V-H69 and ε-H69 cells in SFM treated with or without εTI-TITAT was determined using a phospho-S6 antibody. (D and F) PKCε KO MEFs re-expressing (KO+ε) or not (KO) […] were (D) grown in 10% FCS and analysed for phospho-S6 levels or (F) stimulated with or without FGF-2 and FCS prior to S6K2 immunoprecipitation and Western blotted as indicated. (C and D) Lamin B and actin immunodetection were used as a loading control. (A-F) Results shown are representative of at least 3 independent experiments.

Another test relates to HEK293Tet cells. The test can be described thus: Survival of HEK293Tet cells after serum deprivation (annexin V). To be noted: FGF-2 4 h before serum deprivation 18 h. It is filed as cell-based. As for the experimental part:
(§2) HEK 293-Tet clones transfected with an inducible vector for kinase active S6K1 (1KA), S6K2 (2KA) or empty vector were treated with tetracycline for 6 h prior to (A) Western-blotting (WB) as indicated or (B) S6K1 or 2 kinase assay using an S6 peptide as substrate. (C) V-, 1KA- and 2KA-293 cells were incubated in the absence of tetracycline with (white bars) or without (hatched bars) serum for 18 h or with tetracycline in the absence of serum (black bars) and the proportion of apoptotic cells determined using annexin V staining. (D) Cell lysates from 2KA and 1KA-293 cells treated with or without tetracycline, FGF-2 and PD098059 were analysed for Bcl-XL expression and S6 phosphorylation. (E) HEK 293 cells incubated with or without FGF-2 (4h) prior to serum deprivation (18 h) were analysed by annexin V staining. (A, D, F) Actin and lamin B immunodetections were used as a loading control. (B, C, E) Results represent the average of triplicates±SEM. (A-E) Results are representative of at least three independent experiments.
SCLC cells (5×10^4 cells/ml SFM) were pre-treated with or without 0.1 ng/ml FGF-2 for 4 h prior to treatment with 0.1 μM etoposide and incubated at 37° C. for 96 h. […] The proportion of cell death was either determined by trypan blue exclusion or by Annexin V staining and flow cytometry as previously described (Pardo et al., 2002).

For a further test, the system named is Bcl-XL and XIAP. In words: Bcl-XL and XIAP expression in HEK293Tet cells, Western blot. The test is classed as cell-based. On the procedure: as §2
(A and B) HEK293 expressing tetracycline-inducible kinase-active S6K1 (1KA) or 2 (2KA) were treated with or without tetracycline for 6 h (B) or the time indicated (A). (A) Cells were grown in the absence of FCS and a cell death time-course performed. Cell death was assessed microscopically by determining Trypan blue positivity. Results shown are averages±SEM of triplicates. (C) HEK293 cells were treated for 1 h with or without 25 μM PD098059 prior to stimulation with FGF-2 for 4 h. (B and C) Cell lysates were analysed by SDS-PAGE/WB for the levels of Bcl-XL and XIAP. Actin was used as a loading control. Results shown are representative of at least three independent experiments.

Where [4] appears, read: 40 μM peptide 4 h, FGF-2 0.1 ng/ml 5 min.

For αTI-TITAT (SLNPEWNETGRKKRRQRRRPPQ), in test [1] (setting [4]), the “inhibition of ERK phosphorylation in response to FGF-2 (in words)” value was “neither αTI-TITAT nor TITAT inhibited”. Moreover, the “inhibition of FGF-2-induced S6K2 activation” value in the test on S6K2 [2] is on record as “but not by αTI-TITAT or TITAT”. Besides, the “effect on basal S6K2 activity” value in the test on S6K2 [3] is listed as “no effect”.

`Cn1c2ccccc2c2c3c(c4c5ccccc5n(CCC#N)c4c21)CNC3=O` [Gö6976]: the “inhibition of FGF-2-mediated ERK phosphorylation” value in test [1] was “Only GF109203X and Rottlerin inhibited”.

In the case of wt-PKCε-GFP (enzyme), the basal S6K2 activity (immune complex kinase assay with S6-peptide) with S6K2 (human) amounted to 2 fold.

As for `O=c1cc(O)cc(/C=C/c2ccc(O)c(O)c2)o1` [Hispidin], the “inhibition of FGF-2-mediated ERK phosphorylation” value in test [1] is “Only GF109203X and Rottlerin inhibited”.

For εTI-TITAT (EAVSLKPTGRKKRRQRRRPPQ), the “inhibition of ERK phosphorylation in response to FGF-2” value in test [1] (setting [4]) worked out at 60%. Moreover, in the test on S6 protein, the “effect on increased S6 phosphorylation” value is “prevented”. The “inhibition of FGF-2-induced S6K2 activation” value in the test on S6K2 [2] is listed as “inhibited”. In addition, in the test with S6K2 [3], the “effect on basal S6K2 activity” value is “lowered S6K2 activity in ε-H69 cells to a level comparable to that found in V-H69 cells”.

As to “FGF-2: fibroblast growth factor-2, purchased from Calbiochem”, the survival entry with HEK293Tet cells is on record as “increased survival”. In the test with Bcl-XL and XIAP (HEK293Tet cells stimulated with FGF-2), the “Bcl-XL and XIAP expression” value is “increased”.

Take `COc1cccc(-c2cc(=O)c3ccccc3o2)c1N` [PD098059]: the “block of FGF-2-induced Bcl-XL and XIAP expression” value in the test with Bcl-XL and XIAP (HEK293 cells, 25 μM PD098059 1 h before FGF-2 4 h) was “could be blocked”. Moreover, the “suppression of increased Bcl-XL and XIAP expression” value with Bcl-XL and XIAP (KA-S6K2 HEK293Tet cells, tetracycline induced) is on record as “could not be suppressed”.

`CC(=O)c1c(O)c(C)c(O)c(Cc2c(O)c3c(c(C(=O)/C=C/c4ccccc4)c2O)OC(C)(C)C=C3)c1O` [Rottlerin]: in test [1], the “inhibition of FGF-2-mediated ERK phosphorylation” value was “inhibited”.

With `CN(C)CCCn1cc(C2=C(c3c[nH]c4ccccc34)C(=O)NC2=O)c2ccccc21` [GF109203X], in test [1], the “inhibition of FGF-2-mediated ERK phosphorylation” value was “inhibited”.

As for `O=C(O)CN(CC(=O)O)c1ccccc1OCCOc1ccccc1N(CC(=O)O)CC(=O)O` [BAPTA], in test [1], the “inhibition of FGF-2-mediated ERK phosphorylation” value was “Only GF109203X and Rottlerin inhibited”.

On to TITAT (GRKKRRQRRRPPQ), for which the “inhibition of ERK phosphorylation in response to FGF-2 (in words)” value in test [1] (setting [4]) is given as “neither αTI-TITAT nor TITAT inhibited”. Moreover, the “inhibition of FGF-2-induced S6K2 activation” value in the test with S6K2 [2] is recorded as “but not by αTI-TITAT or TITAT”. The “effect on basal S6K2 activity” value in the test with S6K2 [3] is on record as “no effect”.
